The target of one data set is DGKα (Homo sapiens, UniProt P23743). Nature of the data set: DGKα kinase assay with liposomes and purified enzyme. Type of data set: biochemical. Conditions: purified enzyme, liposomes; highest drug concentration 100 μM. On the procedure: To obtain purified protein, 293T cells were cultured in DMEM containing 5% fetal calf serum and 1% penicillin/streptomycin (GIBCO™, Thermo Fisher Scientific, Waltham, Mass., United States of America). The cells were transiently transfected with 40 μg of pcDNA3-FLAG-DGKα plasmid/plate. The transfection was done using lipofectamine 2000 at a 2:1 ratio of DNA:lipofectamine. The cells were harvested and homogenized in lysis buffer (10 mM Na2HPO4, pH 7.4, 50 mM β-glucopyranose, 50 mM NaF, 1 mM EDTA, 1 mM EGTA, 0.02% Triton X-100, phenylmethylsulfonyl fluoride, leupeptine, and pepstatin). The cell homogenate was centrifuged at 16,000×g at 4° C. for 10 minutes. The supernatant was immunoprecipitated with anti-FLAG (M2) beads for 2 hours at 4° C. The beads were packed onto a screening column and washed five times with the lysis buffer. The protein was eluted with five successive 200 μl fractions of 0.5 mg/ml of FLAG peptide (LifeTein, LLC, Somerset, N.J., United States of America). The elution fractions containing DGKα were combined and dialyzed three times against 10 mM Na2HPO4 (pH 7.4), and 50 mM β-glucopyranose, 50 mM NaF, 1 mM EDTA, and 1 mM EGTA. The purified DGKs were quantified with UV absorbance and by comparing DGKα bands with bovine serum albumin standards on Coomassie-blue stained SDS-PAGE gels. […]
Chain of DGKα (P23743 whole entry, species assumed): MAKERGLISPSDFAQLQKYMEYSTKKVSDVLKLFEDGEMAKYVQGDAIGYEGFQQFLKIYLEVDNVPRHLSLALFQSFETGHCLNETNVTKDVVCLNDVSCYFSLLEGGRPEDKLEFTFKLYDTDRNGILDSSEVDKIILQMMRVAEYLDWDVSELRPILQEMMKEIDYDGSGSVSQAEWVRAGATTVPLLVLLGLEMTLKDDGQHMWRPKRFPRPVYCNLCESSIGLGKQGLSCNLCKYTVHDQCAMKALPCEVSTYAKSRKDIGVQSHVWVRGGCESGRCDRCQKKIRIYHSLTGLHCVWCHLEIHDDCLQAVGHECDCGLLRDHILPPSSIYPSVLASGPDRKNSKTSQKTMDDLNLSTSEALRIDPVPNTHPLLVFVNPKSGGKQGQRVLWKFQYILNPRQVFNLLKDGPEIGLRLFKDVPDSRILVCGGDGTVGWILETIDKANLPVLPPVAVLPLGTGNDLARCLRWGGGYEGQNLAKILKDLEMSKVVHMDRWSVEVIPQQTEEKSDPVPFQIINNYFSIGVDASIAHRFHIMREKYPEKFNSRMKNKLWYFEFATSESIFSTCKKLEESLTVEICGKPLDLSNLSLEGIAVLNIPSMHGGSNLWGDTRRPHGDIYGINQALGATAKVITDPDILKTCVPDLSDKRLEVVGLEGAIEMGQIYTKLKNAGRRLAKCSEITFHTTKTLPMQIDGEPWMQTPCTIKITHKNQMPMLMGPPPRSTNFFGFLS

The next data set concerns GL261 GBM line. Description: cell growth suppression, live cell count. Type of data set: cell-based. Conditions: Mus musculus, GL261, 96 h; single dose, live cells four days post-treatment. On the procedure:
(§1) Single dye controls were used for compensation. […] Experiments were repeated several times per cell type.
(§2) Several cancer cell lines were tested in vitro to determine whether ritanserin was cytotoxic. A single dose of ritanserin was sufficient to suppress cell growth in GBM lines U251 (human), GL261 (mouse), and JWL578 (human GBM stem cell line) with IC50s 5-10 μM, very similar to previous results with R59022. See also, Dominguez et al., 2013. […] Data from alamarBlue assays, a measure of cellular viability, provided similar IC50s. Immortalized astrocytes were viable above 20 μM ritanserin.

Data set [1] has as its system JWL578 GBM stem cell line. Description: cell growth suppression, live cell count. It counts as cell-based. Conditions: Homo sapiens, 96 h; single dose, live cells four days post-treatment. Here is the method: as §1, §2
For a further data set, the system named is U251 GBM line. Description: cell growth suppression, live cell count. It counts as cell-based. Conditions: Homo sapiens, U-251, 96 h; single dose, live cells four days post-treatment. On the procedure: as §1, §2
Another data set deals with VMM39 melanoma line. Nature of the data set: cell growth suppression, live cell count. Type of data set: cell-based. The note with it: Homo sapiens, VMM39, 96 h; single dose, live cells four days post-treatment.
In a further data set the test system is B16 melanoma line. Description: cell growth suppression, live cell count. Type of data set: cell-based. The note with it: Mus musculus, B16, 96 h; single dose, live cells four days post-treatment.
The subject of a further data set is Immortalized astrocytes. Description: viability of immortalized astrocytes. Type of data set: cell-based.
From the text: as §1

The test system of the next data set is HSP60. Nature of the data set: dot-blot phospho-proteomics assay in U251. It counts as cell-based, human. Conditions: U251, 15 μM ritanserin, lysed at 24 hours. On the procedure:
(§3) Immunoblotting was performed as previously described. […] Antibodies were obtained from Cell Signaling Technology (Danvers, Mass., United States of America). Cells were lysed 24-72 hours post-treatment in 1× lysis buffer. The Human Phospho-Kinase Array kit (R&D Systems, Minneapolis, Minn., United States of America) was used to identify ritanserin targets. Immunoblots were performed with multiple replicates.
(§4) A dot-blot proteomics assay was used to investigate ritanserin downstream targets. U251 treated with 15 μM ritanserin were lysed at 24 hours. Several target proteins were substantially changed with ritanserin treatment. HSP60 decreased to 10% of baseline. Heat shock proteins are molecular targets in glioblastoma, and their loss prevents the unfolded protein response. See Ampie et al., 2015. HIF-1a and possibly mTOR up-regulate HSP60. P70 S6K phosphorylation at T389/T421 was decreased, as expected given DGKα activation of mTOR.

For data set [2], the system named is P70 S6K phosphorylation at T389/T421. Nature of the data set: dot-blot phospho-proteomics assay in U251. It counts as cell-based, human. Conditions: U251, 15 μM ritanserin, lysed at 24 hours. Here is the method:
as §3, §4

The next data set has as its system mTOR promoter. Description: mTOR promoter reporter dual luciferase assay. Type of data set: cell-based, human. Conditions: U251 and VMM39, 20 μM ritanserin vs vehicle. Here is the method:
(§5) mTOR promoter reporter-RLuc or HIF-1α binding site-FLuc plasmids were transfected into serum-starved U251 and VMM39 one day after cell plating at 60-80% confluency using Fugene HD at 3:1 (Promega Corporation, Fitchburg, Wis., United States of America). Cells were fed several hours post-transfection and ritanserin was added. Cells were lysed after 36-48 hours and assayed with the Dual-Luciferase Reporter assay system kit (Promega Corporation, Fitchburg, Wis., United States of America) and Promega GloMax® 20/20 luminometer (Promega Corporation, Fitchburg, Wis., United States of America). Results were double-normalized using control empty vectors pRL and pGL3.
(§6) To compare to previous findings that DGKα inhibition affects mTOR transcription, U251 and VMM39 were transfected with an mTOR promoter reporter and treated with ritanserin or vehicle. […] Ritanserin therefore appears to mimic R59022's effects on known DGKα targets in the mTOR and HIF-1α signaling pathways. See Dominguez et al., 2013.

The subject of the next data set is HIF-1α. Description: HIF-1α binding site reporter dual luciferase assay. Type of data set: cell-based, human. Conditions: U251, 20 μM ritanserin vs vehicle. On the procedure:
as §5, §6

A further data set has as its system p53 S15. Nature of the data set: immunoblot of p53 S15 phosphorylation. It counts as cell-based, human. Conditions: extracts from U251 and VMM39 cell lines. On the procedure: as §3
Decreased p53 S15 can cause chemosensitization to other cytotoxic reagents. p53 is hyper-phosphorylated after serine 15 phosphorylation in DNA-damaged cells as an […], pro-transcriptional pathway, and antagonism of S15 phosphorylation is associated with increasing sensitivity to DNA-damaging agents. See Loughery et al., 2014; and Wittlinger et al., 2007. Immunoblots of extracts from both U251 and VMM39 cell lines confirmed that ritanserin decreases S15 phosphorylation.
(In general: In western blotting, separated proteins are transferred to a membrane and probed.)

The test system of data set [3] is U251 human glioblastoma cells. Description: orthotopic intracranial U251 xenograft survival. Type of data set: in vivo, athymic nu/nu mice. The note with it: 50 mg/kg daily oral gavage, started one week after injection. On the procedure:
(§7) Intracranial surgical implantation of tumor was as previously described. See Kefas et al., 2013. In brief, 400,000 U251 human glioblastoma or 50,000 GL261 mouse glioma suspended in 4 μL of serum-free DMEM were injected into anesthetized mice through a burr hole placed […] to the bregma. Treatment for 8-9 mice per group began 6-7 days post-tumor implantation via oral gavage and continued daily. Magnetic resonance images were taken at 3 weeks post-tumor implantation to assess tumor volume, and volumes were calculated as previously described. See Kefas et al., 2013. Mice were euthanized at 20% weight loss or with the first sign of neurological impairment.
Athymic nu/nu mice were injected with U251 cells and one week later began daily oral gavage treatment.

In another data set the test system is GL261 mouse glioma cells. Description: syngeneic intracranial GL261 glioma model. Type of data set: in vivo, C57BL/6 mice. Here is the method:
as §7
(§8) DGKα inhibition decreases T-cell anergy. Thus, it is believed that a syngeneic, immunocompetent tumor model could show a stronger survival benefit. GL261 mouse glioma cells were implanted intracranially and treatment begun six days later. Ritanserin improved median survival to 64 days versus 36 days with vehicle. […] Ritanserin treatment also yielded decreases in tumor size and prolonged survival in other cell lines and xenograft models.

Data set [4] deals with VMM39 human melanoma cells. Description: subcutaneous melanoma tumor model. Type of data set: in vivo, athymic nu/nu mice. Conditions: 50 mg/kg, compared to vehicle and 10 mg/kg ritanserin. Here is the method:
For subcutaneous tumors, 250,000 VMM39 human melanoma cells were injected subcutaneously into the left flank. After two weeks, tumors were measured daily using electronic calipers and tumor volume calculated. Mice were euthanized when tumors were greater than […] in any dimension or greater than 1000 mm^3 in volume.
as §8

Data set [5] relates to G88 mesenchymal GBM stem cell line. Nature of the data set: intracranial G88 mesenchymal GBM stem cell xenograft survival. It counts as in vivo, mice. The note with it: 50 mg/kg daily, started six days after implantation; vehicle 17.5 days. On the procedure:
as §7
(§9) Glioblastomas can be categorized into four different subtypes based on gene expression patterns and clinical characterization. […] In particular, median survival increased from 17.5 days to 28.5 days in mice with xenografts from a G88 mesenchymal GBM stem cell line.

Data set [6] deals with G2 mesenchymal GBM stem cell line. Description: intracranial G2 mesenchymal GBM stem cell xenograft survival. Type of data set: in vivo, mice. Conditions: 50 mg/kg daily oral gavage vs vehicle.
In data set [7] the test system is mesenchymal GBM cell lines. Nature of the data set: ritanserin treatment of 11 GBM cell lines of various sub-types. Type of data set: cell-based. Conditions: in vitro.
From the text: as §9

For a further data set, the system named is NF-κB. Description: NF-κB luciferase assay. It counts as cell-based. The note with it: two mesenchymal GBM cell lines (G2, G88). On the procedure: (§10) Since radiation is a frontline treatment for GBM, the combination of ritanserin treatment and radiotherapy was tested. The radiosensitization of two different mesenchymal GBM stem cells, including a radioresistant cell type (i.e., G88 cells) is shown in FIGS. 9A and 9B. […] Chou-Talalay analysis indicated synergy. Ritanserin treatment also appears to affect downstream regulators of the radiation response. NF-κB has been indicated as a factor in radioresistance. Thus, the effect of ritanserin on NF-κB expression was also measured in two mesenchymal GBM cell lines using a NF-κB luciferase assay.

The next data set has as its system RhoA. Description: RhoA ELISA. Type of data set: cell-based. Conditions: G2 and G88 mesenchymal GBM cells. The text has this: (§11) Further, based on increases in unprenylated ras-related protein Rap1A in various GBM cells, it appears that ritanserin inhibits geranylgeranyltransferase type 1 (GGTase I).
In data set [8] the test system is mesenchymal GBM stem cells (G2, G88). Nature of the data set: radiosensitization, soft agar colony assay. It counts as cell-based. The note with it: 1.25 μM ritanserin, 4 Gy radiation, colonies after two weeks. Here is the method:
as §10

Data set [9] has as its system U251 GBM and VMM39 melanoma cell lines. Description: Annexin V cell death assay (flow cytometry). It counts as cell-based, human. The note with it: compared to controls. On the procedure:
as §1
To determine the mechanism of ritanserin cytotoxicity, ritanserin-treated cells were assayed for Annexin V-positivity as well as cellular permeability (with DNA dye 7-AAD).
For orientation: Flow cytometry measures light scatter and fluorescence of single cells or particles in a stream.

Data set [10] has as its system lung (A549) and pancreatic (MPanc-96) carcinoma cells. Nature of the data set: ritanserin sensitivity after epithelial-mesenchymal transition. Type of data set: cell-based. The note with it: EMT induced with TNF-alpha and TGF-beta; 15 μM (lung), 10 μM (pancreatic). The text has this: Thus it appears that the mesenchymal cancer phenotype can be preferentially targeted with ritanserin in GBM and in other cancers, as well.

Data set [11] has as its system geranylgeranyltransferase type 1 (GGTase I). Nature of the data set: unprenylated Rap1A immunoblot. Type of data set: cell-based. Conditions: various GBM cells.
From the text: as §11

The target of data set [12] is serotonin (5-hydroxytryptamine, 5-HT) subtype 5-HT2. Conditions: read-out: Ki as 5-HT2 antagonist; cited from earlier work.
For data set [13] the following is noted: previous studies; cited from earlier work.
The conditions of data set [14]: previous studies (Leysen et al., 1985); cited from earlier work.

SMILES strings stand for the structures.

By IC50 is commonly meant the concentration needed to halve the response being measured. A lower IC50 goes with inhibition by little substance. The term Ki denotes a dissociation constant, usually derived from enzyme kinetics or from competition with a known ligand. Turning to `Cc1nc2sccn2c(=O)c1CCN1CCC(=C(c2ccc(F)cc2)c2ccc(F)cc2)CC1` [ritanserin, 6-[2-[4-[bis(4-fluorophenyl)methylidene]piperidin-1-yl]ethyl]-7-methyl-[1,3]thiazolo[3,2-a]py-rimidin-5-one], the IC50 was 9 µM on DGKα; 5 to 10 µM in the data set on GL261 GBM line; 5 to 10 µM in data set [1]; 5 to 10 µM in the data set with U251 GBM line; 10 to 15 µM in the data set on VMM39 melanoma line; 10 to 15 µM with B16 melanoma line. For the same compound, the “ritanserin concentration at which astrocytes were viable” value with Immortalized astrocytes is recorded as “above 20 μM”. The HSP60 level with HSP60 is 10 % of baseline. Moreover, the “P70 S6K phosphorylation at T389/T421” value in [2] is “decreased”. Further, the mTOR promoter activity result with mTOR promoter is reported as “strongly decreased”. In addition, in the data set with HIF-1α, the HIF-1α reporter activity result is “loss of HIF-1α reporter activity”. In addition, in the data set with p53 S15, the “p53 S15 phosphorylation” value was “decreases”. For the same compound, in data set [3], the survival entry is on record as “increased survival significantly”. Also, the median survival is 64 days in the data set with GL261 mouse glioma cells (50 mg/kg daily oral, started six days after implantation, vehicle 36 days); 28.5 days in data set [5]; “increased” in [6]. Moreover, the “tumor size by magnetic resonance imaging” value with GL261 mouse glioma cells (three weeks after implantation, vs vehicle) was “decreased tumor size”. Further, in data set [4], the tumor formation entry is listed as “delayed tumor formation”. In [7], the “sensitivity of mesenchymal GBM cell lines relative to other subtypes” value was “three to four times more sensitive”. The NF-κB expression result in the data set on NF-κB is given as “decreased NF-κB expression”. For the same compound, in the data set with RhoA, the RhoA expression result is listed as “inhibit RhoA expression”. Also, in data set [8], the “radiosensitization, colony number” value was “clear radiosensitization effect”. Besides, in data set [9], the “Annexin V positivity” value was “increased Annexin V”. Moreover, the “sensitivity to ritanserin after EMT” value in data set [10] is recorded as “more sensitive”. Also, in [11], the “GGTase I inhibition inferred from unprenylated Rap1A” value is “inhibits”. Moreover, the inhibition constant (Ki) in data set [12] was 0.00039 µM. The oral bioavailability result in [13] was “orally bioavailable”. Also, the brain exposure entry in [14] is “reach the brain in meaningful concentrations”.
For the compound `Cc1nc2sccn2c(=O)c1CCN1CCC(=C(c2ccccc2)c2ccc(F)cc2)CC1` [R59022], half-maximal inhibition at DGKα (IC50) was put at 20 µM.

The record behind these values is patent publication US10946020B2, “Compositions and methods for treating cancer” (University of Virginia Patent Foundation, priority 2016, dated 2021).
